Assay results taken from ChEMBL document CHEMBL5543158, “Design of Evodiamine-Glucose Conjugates with Improved In Vivo Antitumor Activity” (J Med Chem, 2024).
The source made the active and inactive calls. The rule behind the calls is not given here.

Columns and labels:
HCT-116 [1] = assay: Antiproliferative activity against human HCT116 cells in presence of 5 uM phloretin measured after 72 hrs by CCK-8 assay; assay type: functional, cell-based; conditions: HCT-116, 72 h
HCT-116 [2] = assay: Pro-oxidant effect in human HCT-116 cells assessed as induction of reactive oxygen level (ROS) measured after 12 hrs by flow cytometry using the 2',7'-dichloro-fluorescein diacetate (DCFH-DA) fluorescent probe assay; assay type: functional, cell-based; conditions: dose 0.02-0.5 µM
[3] = Toxicity in mouse xenografted with human HCT-116 cells assessed as organ damage by measuring change in liver at 10 mg/kg, ip twice a day administered 21 consecutive days; assay type: organism-based; conditions: in vivo
HCT-116 [4] = assay: Induction of apoptosis in human HCT116 cells assessed as accumulation of cells at G2 phase at 0.1 uM measured after 48 hrs by Annexin V-PI Flow cytometry assay (reference value: 17.63%); assay type: functional
[5] = Tmax in mouse at 20 mg/kg, ip measured upto 24 hrs; assay type: ADME, organism-based; conditions: in vivo
HCT-116 [6] = assay: Induction of apoptosis in human HCT116 cells assessed as accumulation of cells at G2 phase at 0.2 uM measured after 48 hrs by Annexin V-PI Flow cytometry assay (reference value: 17.63%); assay type: functional
HCT-116 [7] = assay: Antimigratory activity against human HCT116 cells assessed as wound healing rate incubated for 24 hrs by wound healing assay; assay type: functional, cell-based
HCT-116 [8] = assay: Induction of apoptosis in human HCT116 cells assessed as accumulation of cells at S phase at 0.1 uM measured after 48 hrs by Annexin V-PI Flow cytometry assay (reference value: 31.25%); assay type: functional
A549 = assay: Antiproliferative activity against human A549 cells measured after 72 hrs by CCK-8 cells; assay type: functional, cell-based; conditions: A549, 72 h
HCT-116 [9] = assay: Induction of apoptosis in human HCT116 cells assessed as accumulation of cells at G1 phase at 0.1 uM measured after 48 hrs by Annexin V-PI Flow cytometry assay (reference value: 51.12%); assay type: functional
HCT-116 [10] = assay: Antimigratory activity against human HCT116 cells assessed as wound healing rate at 0.05 to 0.002 microM incubated for 24 hrs by wound healing assay (reference value: 62%); assay type: functional; conditions: dose 0.05-0.002 µM, at 0.002 to 0.05 µM
HCT-116 [11] = assay: Induction of apoptosis in 100 pmol GLUT1 siRNA treated human HCT-116 cells assessed as late apoptotic cells at 50 nM incubated for 48 hrs (reference value: 13.36%); assay type: functional
HCT-116 [12] = assay: Antiproliferative activity against human HCT116 cells measured after 72 hrs by CCK-8 cells; assay type: functional, cell-based; conditions: HCT-116, 72 h
HCT-116 [13] = assay: In vivo antitumor effect in human HCT-116 cells xenografted mouse model assessed as induction of apoptosis in tumor at 10 to 20 mg/kg, ip twice a day administered 21 consecutive days by TUNEL based assay; assay type: functional, organism-based; conditions: dose 10-20 mg/kg
[14] = Cmax in mouse at 20 mg/kg, ip measured upto 24 hrs; assay type: ADME, organism-based; conditions: in vivo
[15] = MRT (0 to t) in mouse at 20 mg/kg, ip measured upto 24 hrs; assay type: ADME, organism-based; conditions: in vivo
HCT-116 [16] = assay: Induction of apoptosis in human HCT116 cells assessed as accumulation of cells at S phase at 0.05 uM measured after 48 hrs by Annexin V-PI Flow cytometry assay (reference value: 31.25%); assay type: functional
HCT-116 [17] = assay: In vivo antitumor effect in human HCT-116 cells xenografted mouse model assessed as tumor growth inhibition at 20 mg/kg, ip twice a day administered 21 consecutive days; assay type: functional; conditions: read-out: TGI
HCT-116 [18] = assay: Antiproliferative activity against human HCT116 cells in presence of 10 uM phloretin measured after 72 hrs by CCK-8 assay; assay type: functional, cell-based; conditions: HCT-116, 72 h
[19] = Plasma protein binding mouse plasma at 2 uM; assay type: ADME, cell-free; conditions: read-out: PPB (converted)
U-87 MG = assay: Antiproliferative activity against human U-87 MG cells measured after 72 hrs by CCK-8 cells; assay type: functional, cell-based, U-87MG ATCC
[20] = Cytotoxicity against HUVEC after 72 hrs by CCK-8 assay; assay type: toxicity, cell-based; conditions: human, HUVEC cells
HCT-116 [21] = assay: Induction of DNA damage in human HCT-116 cells assessed as increase in gamma-H2AX level at above 0.02 to 0.5 uM incubated for 12 hrs by Western blotting analysis; assay type: functional, cell-based; conditions: dose 0.02-0.5 µM
HCT-116 [22] = assay: Anti-invasive activity against human HCT116 cells assessed as decrease in number of cell migration into lower compartment incubated for 24 hrs by transwell assay; assay type: functional, cell-based; conditions: dose 0.02-0.05 µM
[23] = Toxicity in mouse xenografted with human HCT-116 cells assessed as organ damage by measuring change in lungs at 10 mg/kg, ip twice a day administered 21 consecutive days; assay type: organism-based; conditions: in vivo
[24] = MRT (0 to t) in mouse at 10 mg/kg, ip measured upto 24 hrs; assay type: ADME, organism-based; conditions: in vivo
[25] = AUC (0 to t)in mouse at 10 mg/kg, ip measured upto 24 hrs; assay type: ADME, organism-based; conditions: in vivo

CN1c2ccc(F)cc2C(=O)N2CCc3c([nH]c4ccc(O[C@@H]5O[C@H](CO)[C@@H](O)[C@H](O)[C@H]5O)cc34)[C@H]21
IC50 (HCT-116 [1]): 210 nM
Activity (HCT-116 [2]): Dose-Dependent Effect
Activity [3]: Non-Toxic
Activity (HCT-116 [4]): 88.98%
Tmax [5]: 30 min
Activity (HCT-116 [6]): 92.85%
Activity (HCT-116 [7]): Dose-Dependent Effect
Activity (HCT-116 [8]): 9.44%
IC50 (A549): 64 nM
Activity (HCT-116 [9]): 1.57%
Activity (HCT-116 [10]): 1.1%
Activity (HCT-116 [11]): 22.61%
IC50 (HCT-116 [12]): 64 nM
Activity (HCT-116 [13]): Active
Cmax [14]: 8840 ng/mL
MRT last at 24 h [15]: 59.5 min
Activity (HCT-116 [16]): 32%
inhibition in vivo at 20 mg/kg (HCT-116 [17]): 82%
IC50 (HCT-116 [18]): 430 nM
fraction unbound at 2 µM [19]: 0.101
IC50 (U-87 MG): 64 nM
IC50 at 72 h [20]: 221 nM
Activity (HCT-116 [21]): Active
Activity (HCT-116 [22]): Dose-Dependent Effect
Activity [23]: Non-Toxic
MRT last at 24 h [24]: 48.1 min
AUC(0-t) at 24 h [25]: 4010 ng·h/mL
